Assay results taken from ChEMBL document CHEMBL1817626, “The structure-activity relationship of urea derivatives as anti-tuberculosis agents” (Bioorg Med Chem, 2011).
Converted amounts (≈) assume the structure as drawn. The source made the active and inactive calls. No cut-off for these calls is given here.

Columns and labels:
Bacillus anthracis = test: microbe, parasite or virus in culture
Vero = test: Cytotoxicity against african green monkey Vero cells after 72 hrs by MTT assay; format: cell-based; details: Chlorocebus sabaeus
[1] = target: T1, Hydrolase, alpha/beta hydrolase fold family (Mycobacterium tuberculosis) (UniProt O69638); test: Inhibition of Mycobacterium tuberculosis recombinant EphE expressed in Escherichia coli BL21 using CMNPC as substrate at 10 nM after 30 mins by fluorescent assay relative to control
T1 sequence (whole entry): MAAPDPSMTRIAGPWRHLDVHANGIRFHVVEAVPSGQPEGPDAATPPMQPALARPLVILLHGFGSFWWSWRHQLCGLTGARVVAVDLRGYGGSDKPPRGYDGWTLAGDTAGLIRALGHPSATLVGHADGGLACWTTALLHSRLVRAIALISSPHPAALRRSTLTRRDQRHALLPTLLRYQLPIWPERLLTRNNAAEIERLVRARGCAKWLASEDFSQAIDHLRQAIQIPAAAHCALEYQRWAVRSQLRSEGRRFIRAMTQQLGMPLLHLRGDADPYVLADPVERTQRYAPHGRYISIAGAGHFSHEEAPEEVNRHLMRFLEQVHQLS

[2] = target: T2, Epoxide hydrolase B (Mycobacterium tuberculosis) (UniProt P95276); test: Inhibition of Mycobacterium tuberculosis recombinant EphB expressed in Escherichia coli BL21 using CMNPC as substrate at 10 nM after 30 mins by fluorescent assay relative to control
T2 sequence (whole entry): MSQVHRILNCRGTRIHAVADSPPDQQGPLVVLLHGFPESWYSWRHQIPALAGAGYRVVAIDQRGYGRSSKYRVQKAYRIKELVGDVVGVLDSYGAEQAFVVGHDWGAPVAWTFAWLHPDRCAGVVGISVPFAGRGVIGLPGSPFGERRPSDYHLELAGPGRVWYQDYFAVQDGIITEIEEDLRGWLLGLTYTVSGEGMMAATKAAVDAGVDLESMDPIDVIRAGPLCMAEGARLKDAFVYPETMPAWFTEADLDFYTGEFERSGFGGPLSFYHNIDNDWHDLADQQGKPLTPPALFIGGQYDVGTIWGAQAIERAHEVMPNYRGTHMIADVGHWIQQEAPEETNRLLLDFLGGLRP

[3] = target: T3, Bifunctional epoxide hydrolase 2 (Homo sapiens, UniProt P34913); test: Inhibition of human recombinant soluble epoxide hydrolase using CMNPC as substrate after 10 mins by fluorescent assay
T3 sequence (P34913 whole entry): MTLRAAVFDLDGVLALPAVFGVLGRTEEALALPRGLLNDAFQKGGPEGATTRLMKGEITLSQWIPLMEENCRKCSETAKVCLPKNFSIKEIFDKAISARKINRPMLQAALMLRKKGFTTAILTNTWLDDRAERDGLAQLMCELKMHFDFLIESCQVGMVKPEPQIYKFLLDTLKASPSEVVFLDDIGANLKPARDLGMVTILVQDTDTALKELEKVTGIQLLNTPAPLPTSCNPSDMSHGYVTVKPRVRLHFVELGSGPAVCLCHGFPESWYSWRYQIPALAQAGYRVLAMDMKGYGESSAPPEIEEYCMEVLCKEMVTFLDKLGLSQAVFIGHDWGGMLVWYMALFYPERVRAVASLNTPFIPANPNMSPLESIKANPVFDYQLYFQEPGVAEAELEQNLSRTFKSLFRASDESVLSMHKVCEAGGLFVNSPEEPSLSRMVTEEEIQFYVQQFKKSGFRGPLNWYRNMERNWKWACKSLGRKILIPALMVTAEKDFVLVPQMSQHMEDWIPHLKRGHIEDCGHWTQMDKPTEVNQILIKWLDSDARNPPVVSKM

Enterococcus faecalis = test: Antibacterial activity against Enterococcus faecalis; format: functional
[4] = tested on: Mycolicibacterium smegmatis; test: microbe, parasite or virus in culture; details: str. MC2 155, 168 h
Staphylococcus aureus = test: Antibacterial activity against Staphylococcus aureus; format: functional
Escherichia coli [5] = test: Antibacterial activity against Escherichia coli […] TolC; format: functional
Klebsiella pneumoniae = test: Antibacterial activity against Klebsiella pneumoniae; format: functional
Enterococcus faecium = test: Antibacterial activity against Enterococcus faecium; format: functional
Pseudomonas aeruginosa = test: Antibacterial activity against Pseudomonas aeruginosa; format: functional
[6] = tested on: Mycobacterium tuberculosis; test: microbe, parasite or virus in culture; details: H37Rv, 168 h
Escherichia coli [7] = test: Antibacterial activity against Escherichia coli K12; format: functional; details: K-12

SMILES	MIC (Bacillus anthracis)	IC50 (Vero)	inhibition [1]	inhibition [2]	IC50 [3]	MIC (Enterococcus faecalis)	MIC [4]	MIC (Staphylococcus aureus)	MIC (Escherichia coli [5])	MIC (Klebsiella pneumoniae)	MIC (Enterococcus faecium)	MIC (Pseudomonas aeruginosa)	MIC [6]	MIC (Escherichia coli [7])
CC(CCc1ccccc1)NC(=O)Nc1cccc(C(F)(F)F)c1F (configuration not stated)	> 200 µg/mL	38.5 µg/mL (≈ 109 µM)	63.9%	inactive	1.9 nM	100 µg/mL (≈ 282 µM)	6.25 µg/mL (≈ 17.6 µM)	> 200 µg/mL	6.25 µg/mL (≈ 17.6 µM)	> 200 µg/mL	100 µg/mL (≈ 282 µM)	> 200 µg/mL	1.6 µg/mL (≈ 4.52 µM)	> 200 µg/mL
CC(C)OCCNC(=O)NC12CC3CC(CC(C3)C1)C2	> 200 µg/mL	6.4 µg/mL (≈ 22.8 µM)	14.7%	11.9%	260 nM	> 200 µg/mL	200 µg/mL (≈ 713 µM)	> 200 µg/mL	> 200 µg/mL	> 200 µg/mL	> 200 µg/mL	> 200 µg/mL	25 µg/mL (≈ 89.2 µM)	> 200 µg/mL
O=C(NCc1ccccc1)NC1C2CC3CC(C2)CC1C3 (configuration not stated)	> 200 µg/mL	4.2 µg/mL (≈ 14.8 µM)	34.1%	inactive	14.8 nM	> 200 µg/mL	100 µg/mL (≈ 352 µM)	> 200 µg/mL	> 200 µg/mL	> 200 µg/mL	> 200 µg/mL	> 200 µg/mL	3.1 µg/mL (≈ 10.9 µM)	> 200 µg/mL
O=C(NC1CCCCC1)NC1C2CC3CC(C2)CC1C3 (configuration not stated)	> 200 µg/mL	25 µg/mL (≈ 90.4 µM)	70.2%	11.6%	0.4 nM	> 200 µg/mL	> 200 µg/mL	> 200 µg/mL	> 200 µg/mL	> 200 µg/mL	> 200 µg/mL	> 200 µg/mL	10 µg/mL (≈ 36.2 µM)	> 200 µg/mL
O=C(NCC12CC3CC(CC(C3)C1)C2)Nc1ccc(F)c(F)c1F	1.6 µg/mL (≈ 4.73 µM)	1.18 µg/mL (≈ 3.49 µM)	90.8%	44.2%	0.4 nM	> 200 µg/mL	0.8 µg/mL (≈ 2.36 µM)	3.12 µg/mL (≈ 9.22 µM)	1.6 µg/mL (≈ 4.73 µM)	> 200 µg/mL	> 200 µg/mL	50 µg/mL (≈ 148 µM)	0.01 µg/mL (≈ 0.0296 µM)	> 200 µg/mL
O=C(NCc1cccc(Cl)c1)Nc1cccc(C(F)(F)F)c1F	> 200 µg/mL	193 µg/mL (≈ 557 µM)	15.5%	16.6%	3.7 nM	> 200 µg/mL	> 200 µg/mL	> 200 µg/mL	> 200 µg/mL	> 200 µg/mL	> 200 µg/mL	> 200 µg/mL	1.6 µg/mL (≈ 4.61 µM)	> 200 µg/mL
CC(C)(C)NC(=O)NC1C2CC3CC(C2)CC1C3 (configuration not stated)	> 200 µg/mL	372 µg/mL (≈ 1490 µM)	55.4%	20.7%	24.2 nM	> 200 µg/mL	> 200 µg/mL	> 200 µg/mL	> 200 µg/mL	> 200 µg/mL	> 200 µg/mL	> 200 µg/mL	12.5 µg/mL (≈ 49.9 µM)	> 200 µg/mL
COC(=O)c1ccc(NC(=O)NC23CC4CC(CC(C4)C2)C3)cc1O	> 200 µg/mL	30.3 µg/mL (≈ 88 µM)	79.5%	26.9%	1.2 nM	> 200 µg/mL	50 µg/mL (≈ 145 µM)	> 200 µg/mL	> 200 µg/mL	> 200 µg/mL	> 200 µg/mL	> 200 µg/mL	0.4 µg/mL (≈ 1.16 µM)	> 200 µg/mL
CCCCCCCNC(=O)NC1C2CC3CC(C2)CC1C3 (configuration not stated)	> 200 µg/mL	20 µg/mL (≈ 68.4 µM)	99.9%	37.1%	0.5 nM	> 200 µg/mL	1.6 µg/mL (≈ 5.47 µM)	> 200 µg/mL	> 200 µg/mL	> 200 µg/mL	> 200 µg/mL	> 200 µg/mL	0.2 µg/mL (≈ 0.684 µM)	> 200 µg/mL
Cc1c(Cl)cccc1NC(=O)NC1C2CC3CC(C2)CC1C3 (configuration not stated)	> 200 µg/mL	26.4 µg/mL (≈ 82.8 µM)	58.3%	9.8%	4.5 nM	> 200 µg/mL	> 100 µg/mL	> 200 µg/mL	> 200 µg/mL	> 200 µg/mL	> 200 µg/mL	> 200 µg/mL	1.6 µg/mL (≈ 5.02 µM)	> 200 µg/mL
CCCCCCCNC(=O)Nc1ccc(C)c(Cl)c1	> 200 µg/mL	186 µg/mL (≈ 659 µM)	99.3%	91%	1.6 nM	> 200 µg/mL	> 200 µg/mL	> 200 µg/mL	> 200 µg/mL	> 200 µg/mL	> 200 µg/mL	> 200 µg/mL	3.1 µg/mL (≈ 11 µM)	> 200 µg/mL
Cc1ccc(NC(=O)NC2CCCCCCC2)cc1Cl	> 200 µg/mL	> 400 µg/mL	98.2%	83.6%	0.4 nM	> 200 µg/mL	0.8 µg/mL (≈ 2.71 µM)	> 200 µg/mL	> 200 µg/mL	> 200 µg/mL	> 200 µg/mL	> 200 µg/mL	0.01 µg/mL (≈ 0.0339 µM)	> 200 µg/mL
CC(=O)c1cccc(NC(=O)NC2C3CC4CC(C3)CC2C4)c1 (configuration not stated)	> 200 µg/mL	9.7 µg/mL (≈ 31 µM)	31.4%	80.6%	0.5 nM	> 200 µg/mL	6.25 µg/mL (≈ 20 µM)	> 200 µg/mL	> 200 µg/mL	> 200 µg/mL	> 200 µg/mL	> 200 µg/mL	0.1 µg/mL (≈ 0.32 µM)	> 200 µg/mL
CCCOCCNC(=O)NC12CC3CC(CC(C3)C1)C2	> 200 µg/mL	265 µg/mL (≈ 944 µM)	35%	16.6%	243 nM	> 200 µg/mL	200 µg/mL (≈ 713 µM)	> 200 µg/mL	200 µg/mL (≈ 713 µM)	> 200 µg/mL	> 200 µg/mL	> 200 µg/mL	25 µg/mL (≈ 89.2 µM)	> 200 µg/mL
Cc1ccc(NC(=O)NCC23CC4CC(CC(C4)C2)C3)cc1Cl	> 200 µg/mL	4.34 µg/mL (≈ 13 µM)	94.1%	33.9%	0.4 nM	> 200 µg/mL	0.8 µg/mL (≈ 2.4 µM)	> 200 µg/mL	> 200 µg/mL	> 200 µg/mL	> 200 µg/mL	> 200 µg/mL	0.02 µg/mL (≈ 0.0601 µM)	> 200 µg/mL
CCCCCCNC(=O)NC1C2CC3CC(C2)CC1C3 (configuration not stated)	> 200 µg/mL	175 µg/mL (≈ 628 µM)	100%	32%	1 nM	> 200 µg/mL	6.25 µg/mL (≈ 22.4 µM)	> 200 µg/mL	> 200 µg/mL	> 200 µg/mL	> 200 µg/mL	> 200 µg/mL	0.01 µg/mL (≈ 0.0359 µM)	> 200 µg/mL
CC(C)NC(=O)NC1C2CC3CC(C2)CC1C3 (configuration not stated)	> 200 µg/mL	23.4 µg/mL (≈ 99 µM)	57.3%	27.2%	84.4 nM	> 200 µg/mL	> 100 µg/mL	> 200 µg/mL	> 200 µg/mL	> 200 µg/mL	> 200 µg/mL	> 200 µg/mL	50 µg/mL (≈ 212 µM)	> 200 µg/mL
O=C(Nc1cccc(C(F)(F)F)c1F)NC1CCCCCCC1	3.12 µg/mL (≈ 9.39 µM)	25.3 µg/mL (≈ 76.1 µM)	56.3%	17%	0.4 nM	> 200 µg/mL	0.4 µg/mL (≈ 1.2 µM)	> 200 µg/mL	25 µg/mL (≈ 75.2 µM)	> 200 µg/mL	> 200 µg/mL	> 200 µg/mL	0.8 µg/mL (≈ 2.41 µM)	> 200 µg/mL
